# Reference: ChEMBL document CHEMBL1201862, “PubChem BioAssay data set” (2004)
# Calls of active or inactive are those of the source.
# How the values were obtained:
# Large T antigen = Large T antigen (Simian virus 40, UniProt P03070); assay type: functional, Betapolyomavirus macacae;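 also: Confirmatory-stage PubChem screen for compounds that inhibit SV40 T antigen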
# [1] = target: DNA dC->dU-editing enzyme APOBEC-3G (Homo sapiens, UniProt Q9HC16); assay type: functional;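 also: Dose-response counterscreen measuring inhibition of APOBEC3G DNA deaminase activity, run while confirming APOBEC3A inhibitors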
# [2] = target: T1, Voltage-gated N-type calcium channel alpha-1B subunit/Amyloid beta A4 precursor protein-binding family A member 1 (Homo sapiens, UniProt Q00975+Q02410); assay type: protein assay
# T1 sequence (Q00975 whole entry): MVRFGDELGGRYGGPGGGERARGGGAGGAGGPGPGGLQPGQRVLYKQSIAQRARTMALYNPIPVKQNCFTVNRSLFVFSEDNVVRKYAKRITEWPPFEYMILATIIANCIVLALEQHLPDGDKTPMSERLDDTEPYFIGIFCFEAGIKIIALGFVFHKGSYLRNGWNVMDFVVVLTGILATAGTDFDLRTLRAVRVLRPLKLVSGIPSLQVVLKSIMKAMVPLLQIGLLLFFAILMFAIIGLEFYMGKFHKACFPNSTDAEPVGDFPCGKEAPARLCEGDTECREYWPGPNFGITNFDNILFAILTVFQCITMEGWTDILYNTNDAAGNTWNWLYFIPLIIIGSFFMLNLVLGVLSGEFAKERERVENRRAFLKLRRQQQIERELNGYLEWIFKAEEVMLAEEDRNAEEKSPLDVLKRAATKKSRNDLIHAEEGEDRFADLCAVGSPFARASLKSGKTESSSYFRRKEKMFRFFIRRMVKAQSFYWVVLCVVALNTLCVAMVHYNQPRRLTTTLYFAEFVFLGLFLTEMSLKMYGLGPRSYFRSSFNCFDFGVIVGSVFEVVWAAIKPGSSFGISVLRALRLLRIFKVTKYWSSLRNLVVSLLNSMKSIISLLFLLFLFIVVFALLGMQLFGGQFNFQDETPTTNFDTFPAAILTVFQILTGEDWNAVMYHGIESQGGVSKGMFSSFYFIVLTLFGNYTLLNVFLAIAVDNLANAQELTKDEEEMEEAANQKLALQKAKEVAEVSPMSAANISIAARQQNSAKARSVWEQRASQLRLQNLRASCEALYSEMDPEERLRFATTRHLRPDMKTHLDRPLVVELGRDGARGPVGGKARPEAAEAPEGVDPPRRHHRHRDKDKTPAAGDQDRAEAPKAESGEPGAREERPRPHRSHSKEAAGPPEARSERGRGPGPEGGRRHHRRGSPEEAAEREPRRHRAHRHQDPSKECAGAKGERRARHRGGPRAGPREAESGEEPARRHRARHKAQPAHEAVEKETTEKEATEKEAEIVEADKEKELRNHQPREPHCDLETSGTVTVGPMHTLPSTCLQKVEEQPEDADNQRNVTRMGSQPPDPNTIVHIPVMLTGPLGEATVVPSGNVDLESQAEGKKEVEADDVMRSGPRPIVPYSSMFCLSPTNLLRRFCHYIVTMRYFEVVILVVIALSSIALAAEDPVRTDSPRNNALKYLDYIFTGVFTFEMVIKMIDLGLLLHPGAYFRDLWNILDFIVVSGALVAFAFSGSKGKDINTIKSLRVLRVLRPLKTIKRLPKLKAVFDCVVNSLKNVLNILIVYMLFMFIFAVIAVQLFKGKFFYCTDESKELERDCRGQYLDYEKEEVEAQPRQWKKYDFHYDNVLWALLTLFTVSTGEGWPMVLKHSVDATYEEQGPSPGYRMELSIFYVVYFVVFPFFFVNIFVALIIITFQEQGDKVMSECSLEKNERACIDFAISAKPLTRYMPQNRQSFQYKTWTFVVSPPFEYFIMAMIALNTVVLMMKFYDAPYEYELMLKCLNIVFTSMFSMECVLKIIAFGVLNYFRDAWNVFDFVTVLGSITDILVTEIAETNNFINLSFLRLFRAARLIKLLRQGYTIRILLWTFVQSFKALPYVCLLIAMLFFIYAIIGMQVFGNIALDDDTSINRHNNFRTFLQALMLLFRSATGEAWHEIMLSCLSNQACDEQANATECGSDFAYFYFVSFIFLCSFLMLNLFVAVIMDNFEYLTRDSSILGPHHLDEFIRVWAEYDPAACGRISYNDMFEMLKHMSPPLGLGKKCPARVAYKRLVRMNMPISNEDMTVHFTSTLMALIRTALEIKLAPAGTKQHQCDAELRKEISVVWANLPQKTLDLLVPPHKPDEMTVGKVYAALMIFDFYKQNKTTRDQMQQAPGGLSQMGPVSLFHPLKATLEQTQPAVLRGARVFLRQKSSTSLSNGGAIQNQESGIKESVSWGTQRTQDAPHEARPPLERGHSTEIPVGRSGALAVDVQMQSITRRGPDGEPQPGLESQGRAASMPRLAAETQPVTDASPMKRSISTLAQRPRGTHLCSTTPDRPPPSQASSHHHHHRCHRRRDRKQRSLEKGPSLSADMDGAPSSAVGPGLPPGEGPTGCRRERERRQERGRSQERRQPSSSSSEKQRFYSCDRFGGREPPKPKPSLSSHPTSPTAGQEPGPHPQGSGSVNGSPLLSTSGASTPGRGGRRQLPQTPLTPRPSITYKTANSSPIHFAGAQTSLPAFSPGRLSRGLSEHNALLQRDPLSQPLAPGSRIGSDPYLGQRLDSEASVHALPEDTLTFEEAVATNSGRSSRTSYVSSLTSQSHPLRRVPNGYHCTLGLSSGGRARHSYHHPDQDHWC
# T1 sequence (Q02410 whole entry): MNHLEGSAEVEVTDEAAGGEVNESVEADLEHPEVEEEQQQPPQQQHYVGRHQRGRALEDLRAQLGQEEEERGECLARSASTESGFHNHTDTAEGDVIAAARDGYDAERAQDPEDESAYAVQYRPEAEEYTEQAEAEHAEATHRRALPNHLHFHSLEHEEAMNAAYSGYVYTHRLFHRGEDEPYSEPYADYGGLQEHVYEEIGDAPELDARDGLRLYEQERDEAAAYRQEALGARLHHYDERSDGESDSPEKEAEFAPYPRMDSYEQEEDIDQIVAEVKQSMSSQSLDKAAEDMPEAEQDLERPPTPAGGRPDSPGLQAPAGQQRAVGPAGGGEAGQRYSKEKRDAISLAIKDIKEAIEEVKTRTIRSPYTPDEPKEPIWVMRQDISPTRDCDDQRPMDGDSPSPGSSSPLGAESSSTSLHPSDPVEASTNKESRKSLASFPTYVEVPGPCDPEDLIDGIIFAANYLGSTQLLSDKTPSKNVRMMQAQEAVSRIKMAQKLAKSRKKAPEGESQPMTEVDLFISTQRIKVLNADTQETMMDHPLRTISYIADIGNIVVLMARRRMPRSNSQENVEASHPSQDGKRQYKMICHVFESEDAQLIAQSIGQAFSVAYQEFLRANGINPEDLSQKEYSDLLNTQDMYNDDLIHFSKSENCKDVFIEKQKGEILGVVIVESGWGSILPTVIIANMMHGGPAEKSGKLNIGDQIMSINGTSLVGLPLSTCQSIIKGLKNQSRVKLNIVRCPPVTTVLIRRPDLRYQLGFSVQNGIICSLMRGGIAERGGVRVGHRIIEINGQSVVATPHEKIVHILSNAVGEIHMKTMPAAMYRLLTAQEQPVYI
# [3] = target: DNA dC->dU-editing enzyme APOBEC-3A (Homo sapiens, UniProt P31941); test: Dose Response confirmation of small molecule APOBEC3A DNA Deaminase Inhibitors via a fluorescence-based single-stranded DNA deaminase assay. [Related pubchem assays (depositor defined):AID493011, AID493024]; assay type: functional
# Sequence of DNA dC->dU-editing enzyme APOBEC-3A (P31941 whole entry): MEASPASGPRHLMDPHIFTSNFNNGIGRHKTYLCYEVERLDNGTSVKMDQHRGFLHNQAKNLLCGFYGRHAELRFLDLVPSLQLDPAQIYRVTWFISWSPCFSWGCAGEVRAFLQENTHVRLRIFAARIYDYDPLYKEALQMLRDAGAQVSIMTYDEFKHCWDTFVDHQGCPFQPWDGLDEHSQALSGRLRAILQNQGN
# [4] = target: T1, Voltage-gated N-type calcium channel alpha-1B subunit/Amyloid beta A4 precursor protein-binding family A member 1; assay type: protein assay; remark: listed apart in the source
# Beta-galactosidase [5] = target: T2, Beta-galactosidase (Escherichia coli, UniProt Q8VNN2); test: Dose response counterscreen for EBI2 assay utilizing the enzyme, b-galactosidase.; assay type: functional
# T2 sequence (Q8VNN2 whole entry): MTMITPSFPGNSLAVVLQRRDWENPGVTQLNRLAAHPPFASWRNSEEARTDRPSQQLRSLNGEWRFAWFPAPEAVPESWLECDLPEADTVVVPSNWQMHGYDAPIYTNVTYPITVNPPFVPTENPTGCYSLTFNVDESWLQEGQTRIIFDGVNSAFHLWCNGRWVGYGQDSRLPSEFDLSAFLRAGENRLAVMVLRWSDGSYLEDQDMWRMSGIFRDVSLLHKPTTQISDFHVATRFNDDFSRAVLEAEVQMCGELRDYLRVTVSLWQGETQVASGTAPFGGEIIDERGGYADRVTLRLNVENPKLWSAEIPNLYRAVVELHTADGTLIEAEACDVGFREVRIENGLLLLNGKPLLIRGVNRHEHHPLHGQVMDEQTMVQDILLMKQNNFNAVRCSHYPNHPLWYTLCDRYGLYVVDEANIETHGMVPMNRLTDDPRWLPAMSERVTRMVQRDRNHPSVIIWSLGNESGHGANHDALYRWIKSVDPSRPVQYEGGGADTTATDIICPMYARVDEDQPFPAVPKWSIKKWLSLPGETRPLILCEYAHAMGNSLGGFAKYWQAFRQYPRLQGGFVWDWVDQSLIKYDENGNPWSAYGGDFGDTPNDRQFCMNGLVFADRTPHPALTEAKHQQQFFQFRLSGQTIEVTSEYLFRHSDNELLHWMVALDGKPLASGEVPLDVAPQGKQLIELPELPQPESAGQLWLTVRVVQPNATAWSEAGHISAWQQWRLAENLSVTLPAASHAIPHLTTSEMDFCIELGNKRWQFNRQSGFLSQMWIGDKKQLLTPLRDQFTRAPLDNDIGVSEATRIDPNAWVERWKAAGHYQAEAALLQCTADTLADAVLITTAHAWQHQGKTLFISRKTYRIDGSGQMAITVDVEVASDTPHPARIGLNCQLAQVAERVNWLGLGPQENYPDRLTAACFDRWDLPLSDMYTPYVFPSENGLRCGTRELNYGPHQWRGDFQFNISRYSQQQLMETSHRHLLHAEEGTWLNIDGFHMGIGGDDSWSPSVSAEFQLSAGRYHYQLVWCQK
# [6] = growth suppression of PTEN-null colon cells, dose response, cell-based, HCT116 PTEN knockout (AID 1047); assay type: functional;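 also: HCT116 colon tumor cells with PTEN knocked out; cells exposed to compound for 60 hours before readout; potency for loss of cell viability measured by luminescence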
# [7] = growth suppression of beta-catenin-knockout colon cells, dose response, cell-based, HCT116, human colon tumor (AID 1045); assay type: functional;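 also: HCT116 colon tumor cells with beta catenin knocked out; cells exposed to compound for 60 hours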
# [8] = target: G-protein coupled receptor 55 (Homo sapiens, UniProt Q9Y2T6); test: GPR55 antagonists blocking LPI-driven arrestin recruitment, primary screen, imaging, U2OS, beta-arrestin-GFP, LPI agonist (AID 2013); assay type: functional;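 also: antagonist potency measured as reduced agonist-driven arrestin aggregation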
# Sequence of G-protein coupled receptor 55 (Q9Y2T6 whole entry): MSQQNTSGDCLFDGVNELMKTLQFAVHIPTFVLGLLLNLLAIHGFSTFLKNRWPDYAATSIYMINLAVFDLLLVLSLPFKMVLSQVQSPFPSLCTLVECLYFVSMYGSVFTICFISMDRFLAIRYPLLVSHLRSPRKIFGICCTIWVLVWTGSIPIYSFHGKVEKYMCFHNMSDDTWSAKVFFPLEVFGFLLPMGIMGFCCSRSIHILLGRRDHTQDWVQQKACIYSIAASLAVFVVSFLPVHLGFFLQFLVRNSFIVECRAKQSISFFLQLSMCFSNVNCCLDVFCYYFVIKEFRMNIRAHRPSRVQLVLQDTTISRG
# Beta-galactosidase [9] = target: T2, Beta-galactosidase; test: PubChem AID 485352; assay type: functional
# [10] = system: Streptococcus sp. 'group A'; test: growth inhibition of control SK(-) GAS strain, dose response, counter-screen for streptokinase expression inhibitor project, luminescence, kanamycin, BacTiterGlo, confirmation (AID 1900); assay type: functional, organism-based
# [11] = cytotoxicity toward NIH3T3 fibroblasts, dose response, counter-screen, cell-based, ATP luminescence, mouse fibroblasts (AID 2010); assay type: functional;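 also: cells exposed to compound for about 90 hours before reading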
# [12] = target: T3, Kappa-type opioid receptor (Homo sapiens, UniProt P41145); assay type: functional
# T3 sequence (P41145 whole entry): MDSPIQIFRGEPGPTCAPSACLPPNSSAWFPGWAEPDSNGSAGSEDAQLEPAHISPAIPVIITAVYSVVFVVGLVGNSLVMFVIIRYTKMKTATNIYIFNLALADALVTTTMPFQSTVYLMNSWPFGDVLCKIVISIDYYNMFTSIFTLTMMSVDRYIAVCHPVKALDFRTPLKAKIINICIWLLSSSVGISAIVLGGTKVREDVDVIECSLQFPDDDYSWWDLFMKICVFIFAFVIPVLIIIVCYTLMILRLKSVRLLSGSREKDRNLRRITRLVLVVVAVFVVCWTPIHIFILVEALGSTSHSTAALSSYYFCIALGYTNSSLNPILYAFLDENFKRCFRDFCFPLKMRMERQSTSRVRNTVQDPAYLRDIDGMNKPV
# [13] = inhibitors of intracellular T. cruzi replication, confirmation, NIH3T3 host cells, beta-gal luminescence (AID 2044); assay type: functional, cell-based;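 also: intracellular parasites grown in NIH/3T3 mouse fibroblasts as host cells; luminescent beta-galactosidase reporter signal from transgenic T. cruzi replicating inside host cells; inhibitors lower the luminescence signal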
# Streptococcus = test: Group A Streptococcus viability loss, dose response, counter-screen for streptokinase expression inhibitor project, luminescence, BacTiterGlo (AID 1915); assay type: functional, organism-based;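 also: potency for reduction of bacterial viability or growth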
# [14] = target: T4, Type-1 angiotensin II receptor (Homo sapiens, UniProt P30556); test: AT1 receptor antagonists, dose response, selectivity assay for APJ receptor antagonist project, cell-based, uHTS hits (AID 463214); assay type: functional;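 also: antagonist potency against angiotensin II stimulated AT1 response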
# T4 sequence (P30556 whole entry): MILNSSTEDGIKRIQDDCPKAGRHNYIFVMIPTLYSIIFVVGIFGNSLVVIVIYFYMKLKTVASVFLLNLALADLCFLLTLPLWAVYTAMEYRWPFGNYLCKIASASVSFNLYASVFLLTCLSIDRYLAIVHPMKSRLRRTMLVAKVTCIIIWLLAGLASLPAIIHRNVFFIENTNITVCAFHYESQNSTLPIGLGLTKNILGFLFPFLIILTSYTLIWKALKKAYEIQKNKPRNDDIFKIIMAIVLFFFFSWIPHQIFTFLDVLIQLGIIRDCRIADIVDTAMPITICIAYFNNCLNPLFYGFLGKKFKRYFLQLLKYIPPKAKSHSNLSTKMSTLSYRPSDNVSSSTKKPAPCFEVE
# [15] = target: T3, Kappa-type opioid receptor; assay type: functional; remark: listed apart in the source
# Beta-galactosidase [16] = target: T2, Beta-galactosidase; assay type: functional
# Streptokinase A = target: T5, Streptokinase A (Streptococcus pyogenes serotype M1, UniProt P10520); test: S. pyogenes streptokinase expression inhibitors, potency, dose response, plasminogen activation absorbance, OD405 (AID 1914); assay type: functional, Streptococcus pyogenes M1 GAS;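 also: secreted streptokinase activity via plasminogen activation per viability signal from cell pellet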
# T5 sequence (P10520 whole entry): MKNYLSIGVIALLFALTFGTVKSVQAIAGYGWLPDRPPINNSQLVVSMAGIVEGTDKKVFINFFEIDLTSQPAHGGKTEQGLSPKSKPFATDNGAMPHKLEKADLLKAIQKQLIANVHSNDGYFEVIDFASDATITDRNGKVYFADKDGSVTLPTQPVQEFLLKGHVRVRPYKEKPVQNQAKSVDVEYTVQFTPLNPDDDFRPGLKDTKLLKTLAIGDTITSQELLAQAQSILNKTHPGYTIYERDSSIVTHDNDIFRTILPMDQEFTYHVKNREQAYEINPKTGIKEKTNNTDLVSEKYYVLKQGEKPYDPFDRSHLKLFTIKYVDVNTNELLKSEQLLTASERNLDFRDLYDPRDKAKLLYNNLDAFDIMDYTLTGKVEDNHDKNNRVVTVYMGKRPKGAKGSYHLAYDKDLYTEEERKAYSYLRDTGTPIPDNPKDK
# Estrogen receptor = target: T6, Estrogen receptor (Homo sapiens, UniProt P03372);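 also: potency for inhibiting coactivator peptide recruitment to the receptor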
# T6 sequence (P03372 whole entry): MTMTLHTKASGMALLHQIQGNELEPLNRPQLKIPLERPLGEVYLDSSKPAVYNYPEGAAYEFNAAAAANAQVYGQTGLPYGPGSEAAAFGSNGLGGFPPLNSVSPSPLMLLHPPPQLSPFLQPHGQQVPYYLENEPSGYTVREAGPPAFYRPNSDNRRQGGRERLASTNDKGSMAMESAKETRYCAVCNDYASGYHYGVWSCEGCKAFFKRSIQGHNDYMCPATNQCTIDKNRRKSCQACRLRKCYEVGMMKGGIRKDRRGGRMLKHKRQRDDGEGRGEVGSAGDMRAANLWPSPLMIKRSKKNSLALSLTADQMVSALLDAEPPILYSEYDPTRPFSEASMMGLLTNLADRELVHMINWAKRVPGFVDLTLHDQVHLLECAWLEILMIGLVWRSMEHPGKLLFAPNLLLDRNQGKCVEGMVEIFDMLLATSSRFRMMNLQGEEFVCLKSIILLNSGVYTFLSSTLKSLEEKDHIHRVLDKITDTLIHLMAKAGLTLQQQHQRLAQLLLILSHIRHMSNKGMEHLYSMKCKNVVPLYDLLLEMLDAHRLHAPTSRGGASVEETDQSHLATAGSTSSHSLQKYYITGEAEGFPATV
smiles,measurement,setting,value
O=C1NC(=O)N(CCc2ccc(F)cc2)C(=O)/C1=C/c1ccco1,IC50,Large T antigen,12.3 µM (active)
same,IC50,[1],20.5 µM (active)
same,IC50,[2],14.8 µM (active)
same,IC50,[3],15 µM (active)
same,IC50,[4],> 50 µM (inactive)
CC1=C(C)C[S+]([O-])N(S(=O)(=O)c2ccccc2)C1 (stereo not drawn),IC50,Large T antigen,19 µM (active)
same,IC50,[2],41.7 µM (active)
same,IC50,[4],> 50 µM (inactive)
C=CCNC(=O)/C(C#N)=C/c1ccc(OS(=O)(=O)c2ccc(C)cc2)c(OC)c1,IC50,Beta-galactosidase [5],> 80 µM (inactive)
same,EC50,[6],28.1 µM (active)
same,EC50,[7],26.6 µM (active)
same,IC50,[8],1.93 µM (active)
Oc1c(/C=N/c2cccc3cccnc23)sc2ccccc12,EC50,Beta-galactosidase [9],> 40 µM (inactive)
same,EC50,[10],7.7 µM (active)
same,EC50,[11],> 60 µM (not active)
same,IC50,[12],4.86 µM (active)
same,EC50,[13],2.58 µM (active)
same,EC50,Streptococcus,9.99 µM (active)
same,IC50,[14],2.78 µM (active)
same,IC50,[15],1.12 µM
same,EC50,Beta-galactosidase [16],> 31.5 µM (inactive)
same,EC50,Streptokinase A,> 150 µM (not active)
same,IC50,Estrogen receptor,5.15 µM (active)
